Experimental data as given in PubChem BioAssay (NCI).
Several values for one entry are separate records, joined by “and”; a condition that tells them apart may be missing. Equal entries are not always repeated.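 Test compounds were applied to cells in 96-well plates for 48 hours at 5 doses. GI50 = concentration required for 50% inhibition of growth. TGI: total growth inhibition.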

Test system: NCI-H522 lung
Test: growth of human tumour cells (NCI), 48 h

| SMILES | GI50 [µM] | TGI |
| --- | --- | --- |
| NC(=O)c1cc(I)ccc1NC(=O)/C=C/c1ccccc1 | 1.07 | – |
| COc1ccc(CNc2c3ccccc3nc3ccccc23)cc1F | 2.01 | 6.45 µM |
| CCn1cc(-c2ccnc3[nH]c(-c4cccc(CN(C)C)c4)cc23)c(-c2ccc(NC(=O)N(C)C)cc2)n1 | – | 20 µM and > 10 µM |
| CCN(Cc1c(F)cccc1OC)c1ccc(CO)c(Cl)c1 | 13 | 29.6 µM |
| CCOC(=O)c1c(C)c2c(n1Cc1ccccc1)CSCC2=O | 14.8 | 58.8 µM |
| CCN(CCNS(C)(=O)=O)c1ccc(N)c(C)c1 | 2 | 3.46 µM |
| Cc1ccc2c(c1)c1ccc3c(c1n2C)C(=O)C=CC3=O | – | 2.68 µM |
| NNc1ncnc2nc[nH]c12 | 1.83 | > 100 µM |
| CN(Cc1cnc2nc(N)nc(N)c2n1)c1ccc(C(=O)N[C@@H](CCS(=O)(=O)O)C(=O)O)cc1 | – | > 100 µM |

Test system: ACHN renal
Test: growth of human tumour cells (NCI), 48 h

| SMILES | GI50 | TGI |
| --- | --- | --- |
| NC(=O)c1cc(I)ccc1NC(=O)/C=C/c1ccccc1 | 3.15 µM | > 47.1 µM |
| COc1ccc(CNc2c3ccccc3nc3ccccc23)cc1F | 3.03 µM | 11.3 µM |
| CCn1cc(-c2ccnc3[nH]c(-c4cccc(CN(C)C)c4)cc23)c(-c2ccc(NC(=O)N(C)C)cc2)n1 | 1.73 µM and 2.45 µM | 10.2 µM and > 10 µM |
| CCN(Cc1c(F)cccc1OC)c1ccc(CO)c(Cl)c1 | 16.8 µM | 44.6 µM |
| CCOC(=O)c1c(C)c2c(n1Cc1ccccc1)CSCC2=O | 18.8 µM | > 100 µM |
| CCN(CCNS(C)(=O)=O)c1ccc(N)c(C)c1 | 2.09 µM | 4.9 µM |
| Cc1ccc2c(c1)c1ccc3c(c1n2C)C(=O)C=CC3=O | – | 3.02 µM |
| NNc1ncnc2nc[nH]c12 | 4.78 µM | > 94 µM |
| CN(Cc1cnc2nc(N)nc(N)c2n1)c1ccc(C(=O)N[C@@H](CCS(=O)(=O)O)C(=O)O)cc1 | – | > 100 µM |

Test system: COLO 205 colon
Test: growth of human tumour cells (NCI), 48 h

| SMILES | GI50 | TGI |
| --- | --- | --- |
| NC(=O)c1cc(I)ccc1NC(=O)/C=C/c1ccccc1 | 0.318 µM | 1.24 µM |
| COc1ccc(CNc2c3ccccc3nc3ccccc23)cc1F | 2.01 µM | 5.64 µM |
| CCn1cc(-c2ccnc3[nH]c(-c4cccc(CN(C)C)c4)cc23)c(-c2ccc(NC(=O)N(C)C)cc2)n1 | < 0.01 µM and 0.0272 µM | 3.81 µM and 2.99 µM |
| CCN(Cc1c(F)cccc1OC)c1ccc(CO)c(Cl)c1 | 0.684 µM | 7.43 µM |
| CCOC(=O)c1c(C)c2c(n1Cc1ccccc1)CSCC2=O | 20.3 µM | 48.8 µM |
| CCN(CCNS(C)(=O)=O)c1ccc(N)c(C)c1 | 13.4 µM | 28.9 µM |
| Cc1ccc2c(c1)c1ccc3c(c1n2C)C(=O)C=CC3=O | – | 3.16 µM |
| NNc1ncnc2nc[nH]c12 | 2.56 µM | 18.7 µM |
| CN(Cc1cnc2nc(N)nc(N)c2n1)c1ccc(C(=O)N[C@@H](CCS(=O)(=O)O)C(=O)O)cc1 | – | > 100 µM |

Test system: SF-539 CNS
Test: growth of human tumour cells (NCI), 48 h

| SMILES | GI50 | TGI |
| --- | --- | --- |
| NC(=O)c1cc(I)ccc1NC(=O)/C=C/c1ccccc1 | 0.36 µM | 1.53 µM |
| COc1ccc(CNc2c3ccccc3nc3ccccc23)cc1F | 3.04 µM | 10.7 µM |
| CCn1cc(-c2ccnc3[nH]c(-c4cccc(CN(C)C)c4)cc23)c(-c2ccc(NC(=O)N(C)C)cc2)n1 | 0.418 µM and 1.38 µM | 13.3 µM and > 10 µM |
| CCN(Cc1c(F)cccc1OC)c1ccc(CO)c(Cl)c1 | 16.6 µM | 33.1 µM |
| CCOC(=O)c1c(C)c2c(n1Cc1ccccc1)CSCC2=O | 17.5 µM | 50.9 µM |
| CCN(CCNS(C)(=O)=O)c1ccc(N)c(C)c1 | 9.08 µM | 21.6 µM |
| Cc1ccc2c(c1)c1ccc3c(c1n2C)C(=O)C=CC3=O | – | 4.93 µM |
| NNc1ncnc2nc[nH]c12 | 21.2 µM | > 100 µM |
| CN(Cc1cnc2nc(N)nc(N)c2n1)c1ccc(C(=O)N[C@@H](CCS(=O)(=O)O)C(=O)O)cc1 | – | > 100 µM |

Test system: MCF7 breast
Test: growth of human tumour cells (NCI), 48 h

| SMILES | GI50 | TGI |
| --- | --- | --- |
| NC(=O)c1cc(I)ccc1NC(=O)/C=C/c1ccccc1 | 0.403 µM | > 42.6 µM |
| COc1ccc(CNc2c3ccccc3nc3ccccc23)cc1F | 2.11 µM | 5.4 µM |
| CCn1cc(-c2ccnc3[nH]c(-c4cccc(CN(C)C)c4)cc23)c(-c2ccc(NC(=O)N(C)C)cc2)n1 | 0.487 µM and 0.312 µM | 19.4 µM and > 10 µM |
| CCN(Cc1c(F)cccc1OC)c1ccc(CO)c(Cl)c1 | 0.165 µM | 16.1 µM |
| CCOC(=O)c1c(C)c2c(n1Cc1ccccc1)CSCC2=O | 17.7 µM | 44.7 µM |
| CCN(CCNS(C)(=O)=O)c1ccc(N)c(C)c1 | 4.3 µM | 27.2 µM |
| Cc1ccc2c(c1)c1ccc3c(c1n2C)C(=O)C=CC3=O | – | 4.99 µM |
| NNc1ncnc2nc[nH]c12 | 3.1 µM | > 100 µM |
| CN(Cc1cnc2nc(N)nc(N)c2n1)c1ccc(C(=O)N[C@@H](CCS(=O)(=O)O)C(=O)O)cc1 | – | > 100 µM |

Test system: HOP-62 NSCLC
Test: growth of human tumour cells (NCI), 48 h

| SMILES | GI50 | TGI |
| --- | --- | --- |
| NC(=O)c1cc(I)ccc1NC(=O)/C=C/c1ccccc1 | 1.12 µM | 23.8 µM |
| COc1ccc(CNc2c3ccccc3nc3ccccc23)cc1F | 4.2 µM | 20.5 µM |
| CCn1cc(-c2ccnc3[nH]c(-c4cccc(CN(C)C)c4)cc23)c(-c2ccc(NC(=O)N(C)C)cc2)n1 | 0.385 µM and 1.28 µM | 14.4 µM and > 10 µM |
| CCN(Cc1c(F)cccc1OC)c1ccc(CO)c(Cl)c1 | 2.69 µM | 25.5 µM |
| CCOC(=O)c1c(C)c2c(n1Cc1ccccc1)CSCC2=O | 22.9 µM | 63.5 µM |
| CCN(CCNS(C)(=O)=O)c1ccc(N)c(C)c1 | 16.2 µM | 31.1 µM |
| Cc1ccc2c(c1)c1ccc3c(c1n2C)C(=O)C=CC3=O | – | > 10 µM |
| NNc1ncnc2nc[nH]c12 | 2.25 µM | 10.5 µM |
| CN(Cc1cnc2nc(N)nc(N)c2n1)c1ccc(C(=O)N[C@@H](CCS(=O)(=O)O)C(=O)O)cc1 | – | > 100 µM |

Test system: LOX IMVI melanoma
Test: growth of human tumour cells (NCI), 48 h

| SMILES | GI50 | TGI |
| --- | --- | --- |
| NC(=O)c1cc(I)ccc1NC(=O)/C=C/c1ccccc1 | 3.18 µM | > 100 µM |
| COc1ccc(CNc2c3ccccc3nc3ccccc23)cc1F | 1.76 µM | 3.63 µM |
| CCn1cc(-c2ccnc3[nH]c(-c4cccc(CN(C)C)c4)cc23)c(-c2ccc(NC(=O)N(C)C)cc2)n1 | 0.297 µM and 0.239 µM | 1.88 µM and 5.2 µM |
| CCN(Cc1c(F)cccc1OC)c1ccc(CO)c(Cl)c1 | 16.9 µM | 33.1 µM |
| CCOC(=O)c1c(C)c2c(n1Cc1ccccc1)CSCC2=O | 14.8 µM | 50.9 µM |
| CCN(CCNS(C)(=O)=O)c1ccc(N)c(C)c1 | 3.48 µM | 12.4 µM |
| Cc1ccc2c(c1)c1ccc3c(c1n2C)C(=O)C=CC3=O | – | > 10 µM |
| NNc1ncnc2nc[nH]c12 | 2.89 µM | > 100 µM |
| CN(Cc1cnc2nc(N)nc(N)c2n1)c1ccc(C(=O)N[C@@H](CCS(=O)(=O)O)C(=O)O)cc1 | – | > 100 µM |

Test system: RXF 393 renal
Test: growth of human tumour cells (NCI), 48 h

| SMILES | GI50 | TGI |
| --- | --- | --- |
| NC(=O)c1cc(I)ccc1NC(=O)/C=C/c1ccccc1 | 0.989 µM | 22.8 µM |
| COc1ccc(CNc2c3ccccc3nc3ccccc23)cc1F | 1.8 µM | 4.82 µM |
| CCn1cc(-c2ccnc3[nH]c(-c4cccc(CN(C)C)c4)cc23)c(-c2ccc(NC(=O)N(C)C)cc2)n1 | 0.356 µM and 1.18 µM | 5.54 µM and > 10 µM |
| CCN(Cc1c(F)cccc1OC)c1ccc(CO)c(Cl)c1 | 10.9 µM | 25.3 µM |
| CCOC(=O)c1c(C)c2c(n1Cc1ccccc1)CSCC2=O | 16.2 µM | 70.6 µM |
| CCN(CCNS(C)(=O)=O)c1ccc(N)c(C)c1 | 2.71 µM | 8.85 µM |
| Cc1ccc2c(c1)c1ccc3c(c1n2C)C(=O)C=CC3=O | – | 3.46 µM |
| NNc1ncnc2nc[nH]c12 | 7.16 µM | > 100 µM |
| CN(Cc1cnc2nc(N)nc(N)c2n1)c1ccc(C(=O)N[C@@H](CCS(=O)(=O)O)C(=O)O)cc1 | – | 1.44 µM |

Test system: HT29 colon
Test: growth of human tumour cells (NCI), 48 h

| SMILES | GI50 | TGI |
| --- | --- | --- |
| NC(=O)c1cc(I)ccc1NC(=O)/C=C/c1ccccc1 | 0.374 µM | > 31.8 µM |
| COc1ccc(CNc2c3ccccc3nc3ccccc23)cc1F | 2.58 µM | 10.3 µM |
| CCn1cc(-c2ccnc3[nH]c(-c4cccc(CN(C)C)c4)cc23)c(-c2ccc(NC(=O)N(C)C)cc2)n1 | 1.89 µM and 1.4 µM | 22.6 µM and > 10 µM |
| CCN(Cc1c(F)cccc1OC)c1ccc(CO)c(Cl)c1 | 1.47 µM | 18.9 µM |
| CCOC(=O)c1c(C)c2c(n1Cc1ccccc1)CSCC2=O | 18.7 µM | > 100 µM |
| CCN(CCNS(C)(=O)=O)c1ccc(N)c(C)c1 | 6.16 µM | 28.7 µM |
| Cc1ccc2c(c1)c1ccc3c(c1n2C)C(=O)C=CC3=O | – | > 10 µM |
| NNc1ncnc2nc[nH]c12 | 4.36 µM | > 100 µM |
| CN(Cc1cnc2nc(N)nc(N)c2n1)c1ccc(C(=O)N[C@@H](CCS(=O)(=O)O)C(=O)O)cc1 | – | > 100 µM |

Test system: KM12 colon
Test: growth of human tumour cells (NCI), 48 h

| SMILES | GI50 | TGI |
| --- | --- | --- |
| NC(=O)c1cc(I)ccc1NC(=O)/C=C/c1ccccc1 | 0.41 µM | > 37.4 µM |
| COc1ccc(CNc2c3ccccc3nc3ccccc23)cc1F | 3.93 µM | 15.1 µM |
| CCn1cc(-c2ccnc3[nH]c(-c4cccc(CN(C)C)c4)cc23)c(-c2ccc(NC(=O)N(C)C)cc2)n1 | 1.06 µM and 1.62 µM | 13.5 µM and > 10 µM |
| CCN(Cc1c(F)cccc1OC)c1ccc(CO)c(Cl)c1 | 15.9 µM | 49.8 µM |
| CCOC(=O)c1c(C)c2c(n1Cc1ccccc1)CSCC2=O | 15 µM | 37.9 µM |
| CCN(CCNS(C)(=O)=O)c1ccc(N)c(C)c1 | 13.1 µM | 26.9 µM |
| Cc1ccc2c(c1)c1ccc3c(c1n2C)C(=O)C=CC3=O | – | > 10 µM |
| NNc1ncnc2nc[nH]c12 | 3.56 µM | 44.5 µM |
| CN(Cc1cnc2nc(N)nc(N)c2n1)c1ccc(C(=O)N[C@@H](CCS(=O)(=O)O)C(=O)O)cc1 | – | > 100 µM |
